This test has as its system organoid bodies. The test is described as follows: Western blot of the liver protein α-fetoprotein in homogenates of organoid bodies incubated with HGF. The settings on record: 40 ng/ml HGF. In kind it is cell-based. The procedure: In this example organoid bodies were exposed for a time period of 1 to 2 days to different micromolar concentrations of puromycin, an active substance that inhibits translation. Then, the size of the treated organoid bodies was compared with those of an untreated control (see comparative micrograph in FIG. 5A). In a second detection method the organoids were taken up in 10 ml lysis buffer containing 7.5 ml PBS, 2.5 ml NP-40 and 1 mM PEFA block, stored overnight in a refrigerator at 4° C. and then homogenized in minihomogenizers for Eppendorf tubes. The homogenate was centrifuged, the supernatant removed and resolved electrophoretically according to standard methods and the gel subjected to a Western immunoblot. […] The first four bands are produced by the different active amounts of puromycin, the last two show the amount of vigilin in the untreated organoids; the same amount of total protein was always applied per track.
The organoid bodies were incubated with 40 ng/ml HGF (hepatocyte growth factor) or without HFG for 7, 11 14 and 17 days. Then, the organoid bodies were homogenized as described in example 7 and subjected to a Western blot assay. The production of the liver protein α-fetoprotein was examined (FIG. 7).
A general note: In western blotting, separated proteins are transferred to a membrane and probed.

Here are results for one substance from patent US20080064034A1, “Multi-Cellular Test Systems” (FRAUNHOFER-GESELLSCHAFT ZUR FÖRDERUNG DER ANGEWAND, priority 2004, published 2008).

Turning to “HGF: hepatocyte growth factor, a differentiation factor for increased formation of cardiac and liver cells”, the “production of the liver protein α-fetoprotein” value by setting is: (after 7 and 11 days of incubation) “distinct synthesis of the fetoprotein can be observed”; (longer exposure time (14 and 17 days)) “tends to inhibit the production again”.
